Results on 5 compounds are retold here after patent US4681895A, “Novel guanidinomethylcyclohexanecarboxylic acid compounds and anti-ulcer drug containing the same” (Kanebo, Ltd., priority 1985, dated 1987).

Series [1] relates to stress-induced gastric ulcer. The experiment in a line: Activity against stress-induced gastric ulcer. Type of series: in vivo, Male Sprague-Dawley rats. The note with it: Rattus norvegicus; oral, rats, 15 min before stress cage in 23° C. water bath for 17 hours; read-out: ED50, Anti-stress-induced ulcer. The procedure:
The experiment was carried out by a modified method of that of Takagi and Okabe [cf. Jap. J. Pharmacol., 18, 9 (1968)]. Male Sprague-Dawley rats weighing 180-200 g (8 week old), 6-8 per group, were fasted for 24 hours and administered orally with each test compound which was suspended in 1% arabic gum aqueous solution. After 15 minutes, the animals were placed in a stress cage and immerse vertically to the level of the xiphoid process in a water bath kept at 23° C. for 17 hours. The animals were killed by ether inhalation. The stomach of each rat was removed, inflated by injecting 12 ml of 1% formalin, and immersed in 1% formalin for 15 minutes. The stomach was then incised along the greater curvature and examined for lesions in the glandular portion under a dissecting microscope. The length (mm) of a ulcer was totalled on each animal and it was indicated as the ulcer index. The mean ulcer index (m) in each test compound-treated group was calculated. The control animals received the same procedure without administering of test compound and the mean ulcer index (l) was calculated. Inhibitory ratio of test compound is expressed as follows. Inhibitory ratio (%)=(1-m/l)×100 wherein l is mean ulcer index in control group, and m is mean ulcer index in test compound-treated group. The anti-ulcer activity of test compound (ED50) was calculated by dose-response curve.

For series [2], the system named is ethanol-induced gastric ulcer. Kind of series: Activity against ethanol-induced gastric ulcer. In kind it is in vivo, Male Sprague-Dawley rats. The note with it: Rattus norvegicus; oral, rats, 30 min before 99.5% ethanol 1 ml orally; killed 1 hour after; read-out: ED50, Anti-ethanol-induced ulcer. The procedure: (§1) The same test compounds as used in Experiment 1 were used.
The experiment was carried out according to the method of Robert et al. [cf. Gastroenterology, 77, 433 (1979)].
Male Sprague-Dawley rats weighing 180-200 g (8 week old), 6-8 per group, were fasted for 24 hours and administered orally with each test compound which was suspended in 1% arabic gum aqueous solution. After 30 minutes, 99.5% ethanol (as a necrotizing agent) was given orally to the rats in a volume of 1 ml. The animals were killed by ether inhalation 1 hour after receiving of ethanol. The stomach of each rat was removed, inflated by injecting 12 ml of 1 % formalin, and immersed in 1% formalin for 15 minutes. Afterward, the mean ulcer index and inhibitory ratio were calculated by the same method as in Experiment 1, and then the ED50 was calculated by dose-response curve.

Series [3] deals with indomethacin-induced gastric ulcer. The experiment in a line: Activity against indomethacin-induced gastric ulcer. In kind it is in vivo, Male Sprague-Dawley rats. The note with it: Rattus norvegicus; oral, rats, 15 min before indomethacin 30 mg/kg subcutaneously; killed 5 hours after; read-out: ED50, Anti-indomethacin-induced ulcer. As to the method: as §1
The experiment was carried out by a modified method of that of Okabe et al. [cf. Dig. Dis. Sci., 28, 1034 (1983)].
Male Sprague-Dawley rats weighing 180-200 g (8 week old), 6-8 per group, were fasted for 24 hours and administered orally with each test compound which was suspended in 1% arabic gum aqueous solution. After 15 minutes, indomethacin (in a solution in 3% sodium bicarbonate solution) was given subcutaneously to the rats at a dose of 30 mg/kg. The animals were killed by ether inhalation 5 hours after receiving of indomethacin. The stomach of each rat was removed, inflated by injecting 12 ml of 1% formalin, containing 0.1% pontamine sky blue, and immersed in 1% formalin for 15 minutes. Afterward, the mean ulcer index and inhibitory ratio were calculated by the same method as in Experiment 1, and then ED50 was calculated by dose response curve.

In another series the test system is Male ddY mice. Kind of series: Test of acute toxity [minimum lethal dose (MLD)]. In kind it is in vivo. The note with it: oral, mice fasted 17 hours, observed for 7 days. As to the method: as §1
Male ddY mice weighing 20-22 g (4 week old), 5 per group, were fasted for 17 hours and administered orally with each test compound which was suspended in 1% arabic gum aqueous solution.

A further series concerns peptic ulcers. The note with it: disclosed in Japanese Patent First Publications; cited from earlier work.

As to `CCOC(=O)c1ccccc1NC(=O)[C@H]1CC[C@H](CNC(=N)N)CC1.Cl.O` [A, N-(o-Ethoxycarbonylphenyl)-trans-4-guanidinomethylcyclohexanecarboxamide hydrochloride monohydrate], the ED50 in series [1] is 108 mg/kg; in series [2], 36 mg/kg; in series [3] it was 33 mg/kg. The “MLD (acute toxicity)” value in the series with Male ddY mice is > 3,000 mg/kg.
The matching figures for `COC(=O)c1ccccc1NC(=O)[C@H]1CC[C@H](CNC(=N)N)CC1.Cl.O` [B, N-(o-Methoxycarbonylphenyl)-trans-4-guanidinomethylcyclohexanecarboxamide hydrochloride monohydrate]: 118 mg/kg, 42 mg/kg, 40 mg/kg and > 3,000 mg/kg.
The matching figures for `Cl.N=C(N)NC[C@H]1CC[C@H](C(=O)Nc2ccccc2C(=O)O)CC1.O` [C, N-(o-Carboxyphenyl)-trans-4-guanidinomethylcyclohexanecarboxamide hydrochloride monohydrate]: 114 mg/kg, 41 mg/kg, 37 mg/kg and > 3,000 mg/kg.
For `Cl.N=C(N)NC[C@H]1CC[C@H](C(=O)Oc2ccccc2C(=O)OCc2ccccc2)CC1` [X, Trans-4-guanidinomethylcyclohexanecarboxylic acid o-benzyloxycarbonylphenylester hydrochloride, reference compound], the figures for the 50% effective dose (ED50) in series [1], in series [2] and in series [3] were 376 mg/kg, 108 mg/kg and 103 mg/kg, respectively. In addition, the “MLD (acute toxicity)” value in the series with Male ddY mice is > 3,000 mg/kg. Further, the “anti-ulcer activity, in words” value in the series on peptic ulcers was “shows an anti-ulcer activity”.
Turning to `Cl.N=C(N)NC[C@H]1CC[C@H](C(=O)Nc2ccccc2)CC1` [Y, N-Phenyl-trans-4-guanidinomethylcyclohexanecarboxamide hydrochloride, reference compound], the ED50 in series [1] amounted to 135 mg/kg; in series [2], 199 mg/kg; in series [3] it was 86 mg/kg. The “MLD (acute toxicity)” value in the series on Male ddY mice was < 1,000 mg/kg. The “anti-ulcer activity, in words” value in the series on peptic ulcers is reported as “shows an anti-ulcer activity”.
